# Where “and” joins values, the source holds several entries; their conditions need not be identical. Equal entries are not always repeated. Structures can show the parent of a compound that is named as a salt. Where two headings read alike, the source gives them in different places.
# Columns and labels:
# [1] = biological target: T1, human FXR-LBD (GST-FXR-LBD) (Homo sapiens, UniProt Q96RI1); assay: HTRF coactivator recruitment assay, agonist mode; format: biochemical
# T1 construct: the human FXR-LBD (residues 234–472) was expressed as a GST fusion protein GST-FXR-LBD; made in house; host or cells: E. coli BL21(DE3)
# T1 sequence (Q96RI1 234-472 isoform Q96RI1-2): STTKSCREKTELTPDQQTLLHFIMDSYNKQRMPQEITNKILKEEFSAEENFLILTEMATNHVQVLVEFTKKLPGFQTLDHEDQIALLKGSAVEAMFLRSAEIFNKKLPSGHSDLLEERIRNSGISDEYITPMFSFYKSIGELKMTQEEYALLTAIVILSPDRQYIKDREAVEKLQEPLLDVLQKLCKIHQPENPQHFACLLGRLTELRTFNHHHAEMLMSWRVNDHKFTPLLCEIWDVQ
# [2] = biological target: T1, human FXR-LBD (GST-FXR-LBD); assay: HTRF coactivator recruitment assay, antagonist mode (in the presence of 50 μM CDCA); format: biochemical; settings: for Relative activity, antagonist mode: 50 μM compound in the presence of 50 μM CDCA, standardized against positive control DY268 (50 μM = 100%); for activity at 0.98 µM / activity at 1.95 µM / activity at 3.9 µM / activity at 7.8 µM / activity at 31.25 µM / activity at 62.5 µM / activity at 125 µM / activity at 250 µM / activity at […]: read-out: Relative antagonist activity (%); for IC50: read-out: IC50, inhibition of CDCA-induced coactivator recruitment to FXR
# [3] = biological target: T2, FXR (pCDNA3.1-hFXR, FXRE-luc) (Homo sapiens, UniProt Q96RI1); assay: cell-based; format: cell-based
# T2 construct: host or cells: HEK 293T
# T2 sequence (Q96RI1 1-486): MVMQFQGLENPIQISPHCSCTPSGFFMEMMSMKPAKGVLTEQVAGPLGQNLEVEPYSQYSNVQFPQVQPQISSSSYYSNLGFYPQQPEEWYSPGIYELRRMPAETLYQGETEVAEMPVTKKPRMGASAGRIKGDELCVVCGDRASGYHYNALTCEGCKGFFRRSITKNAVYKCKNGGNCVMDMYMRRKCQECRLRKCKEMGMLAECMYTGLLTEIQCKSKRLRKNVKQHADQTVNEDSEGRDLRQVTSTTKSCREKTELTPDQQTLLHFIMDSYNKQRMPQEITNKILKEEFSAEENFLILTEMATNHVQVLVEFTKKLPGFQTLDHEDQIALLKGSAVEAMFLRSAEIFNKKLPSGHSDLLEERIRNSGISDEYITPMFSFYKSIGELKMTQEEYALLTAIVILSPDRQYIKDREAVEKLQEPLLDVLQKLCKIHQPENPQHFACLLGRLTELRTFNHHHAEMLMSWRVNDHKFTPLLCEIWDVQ
# [4] = 50 μM compound, standardized against positive control CDCA (50 μM = 100%)
# [5] = 0.98 μM compound + 50 μM CDCA, replicates
# [6] = 1.95 μM compound + 50 μM CDCA, replicates
# [7] = 3.90 μM compound + 50 μM CDCA, replicates
# [8] = 7.80 μM compound + 50 μM CDCA, replicates
# [9] = 31.25 μM compound + 50 μM CDCA, replicates
# [10] = 62.50 μM compound + 50 μM CDCA, replicates
# [11] = 125.00 μM compound + 50 μM CDCA, replicates
# [12] = 250.00 μM compound + 50 μM CDCA, standardized to DMSO and 50 μM CDCA, replicates
# [13] = […] compound + 50 μM CDCA, replicates
# [14] = 10 μM compound in the presence of 50 μM CDCA, DMSO 0%, 50 μM CDCA 100%, HEK 293T, replicates
# [15] = 25 μM compound in the presence of 50 μM CDCA, DMSO 0%, 50 μM CDCA 100%, HEK 293T, replicates
# [16] = HEK-293T, read-out: Relative luciferase activity (%)
# [17] = 10 μM and 25 μM, in the presence of 50 μM CDCA, HEK 293T
smiles,measurement,setting,value
"CC1COC(=O)c2cc3c(cc21)C(C)(C)C(C)C3(C)C (centres unmarked) [GAX, galaxolidone]","Relative activity, agonist mode",[1],0.32%
same,"Relative activity, antagonist mode",[2],14.46%
"CCCCOC(=O)CC(CC(=O)OCCCC)(OC(C)=O)C(=O)OCCCC [ATBC, acetyl tributyl citrate]","Relative activity, agonist mode",[1]; [4],2.49%
same,"Relative activity, antagonist mode",[2],12.58%
"CCCCC(CC)COC(=O)c1ccccc1C(=O)OCC(CC)CCCC (centres unmarked) [DEHP, bis(2-ethylhexyl) phthalate]","Relative activity, agonist mode",[1],0.27%
same,"Relative activity, antagonist mode",[2],4.48%
"CCCCCCCCCCCCCCCC(=O)NCCO [PEA, palmitoyl ethanolamide]","Relative activity, agonist mode",[1]; [4],0.57%
same,"Relative activity, antagonist mode",[2],3.94%
"CCCCC(CC)COP(=O)(OCC(CC)CCCC)OCC(CC)CCCC (centres unmarked) [TEHP, tris(2-ethylhexyl) phosphate]","Relative activity, agonist mode",[1],0.00%
same,"Relative activity, antagonist mode",[2],17.25%
"O=C(Nc1ccc(Cl)cc1)Nc1ccc(Cl)c(Cl)c1 [TCC, triclocarban]","Relative activity, agonist mode",[1],0.44%
same,"Relative activity, antagonist mode",[2],10.80%
"CC(C)(C)c1cc(C=O)cc(C(C)(C)C)c1O [BHT-C, 3,5-Ditert-butyl-4-hydroxybenzaldehyde]","Relative activity, agonist mode",[1]; [4],0.19%
same,"Relative activity, antagonist mode",[2],6.36%
"CC(C)(C)CC(C)(C)c1ccc(O)c(-n2nc3ccccc3n2)c1 [UV329, octrizole]","Relative activity, agonist mode",[1]; [4],0.085%
same,"Relative activity, antagonist mode",[2],18.06%
"N#Cc1nn(-c2c(Cl)cc(C(F)(F)F)cc2Cl)c(N)c1S(=O)(=O)C(F)(F)F [FIP-S, fipronil sulfone]","Relative activity, agonist mode",[1],2.06%
same,"Relative activity, antagonist mode",[2],13.98%
COc1cccc(Cn2cc(C(=O)Nc3ccc(C)c(S(=O)(=O)N4CCOCC4)c3)c(-c3ccc(C)cc3)n2)c1 [DY268],"Relative activity, antagonist mode",[2],100.00%
same,Relative luciferase activity (%),"[3]; 0.001 μM, dose-response, replicates",91.11% and 96.02% and 92.43%
same,Relative luciferase activity (%),"[3]; 0.01 μM, dose-response, replicates",84.90% and 84.00% and 97.07%
same,Relative luciferase activity (%),"[3]; 0.05 μM, dose-response, replicates",69.60% and 78.44% and 89.94%
same,Relative luciferase activity (%),"[3]; 0.1 μM, dose-response, replicates",57.18% and 63.12% and 63.84%
same,Relative luciferase activity (%),"[3]; 0.5 μM, dose-response, replicates",12.17% and 13.75% and 19.14%
same,Relative luciferase activity (%),"[3]; 1 μM, dose-response, replicates",-1.72% and -0.13% and 6.23%
same,Relative luciferase activity (%),"[3]; 5 μM, dose-response, replicates",-18.25% and -19.25% and -13.03%
same,Relative luciferase activity (%),"[3]; 10 μM, dose-response, replicates",-15.95% and -18.33% and -14.15%
same,Rate of FXR inhibition at the maximum exposure concentration,"[3]; HEK 293T DLR assay, maximum exposure concentration",116.14%
same,IC50,"[3]; HEK 293T cell-based DLR assay, read-out: IC50, inhibition of FXR transcriptional activity",0.25 µM
"CCCCCCCC/C=C\CCCCCCCC(=O)NCCO [OEA, oleoyl ethanolamide]","Relative activity, agonist mode",[1],0.00%
same,activity at 0.98 µM,[2]; [5],106%
same,activity at 1.95 µM,[2]; [6],114%
same,activity at 3.9 µM,[2]; [7],110%
same,activity at 7.8 µM,[2]; [8],110%
same,activity at 31.25 µM,[2]; [9],102%
same,activity at 62.5 µM,[2]; [10],101%
same,activity at 125 µM,[2]; [11],96.2%
same,activity at 250 µM,[2]; [12],89.5%
same,activity at […],[2]; [13],104%
same,IC50,[2],34 µM
same,Relative luciferase activity (%),[3]; [14],99.0% and 100.1% and 128.0%
same,Relative luciferase activity (%),[3]; [15],96.5% and 110.1%
same,activity at 25 µM,"[3]; HEK-293T, 25 μM compound in the presence of 50 μM CDCA, DMSO 0%, 50 μM CDCA 100%, HEK 293T, replicates, read-out: Relative luciferase activity (%)",110%
"Oc1cc(Cl)ccc1Oc1ccc(Cl)cc1Cl [TLS, triclosan]","Relative activity, agonist mode",[1],13.3% and 13.26%
same,activity at 1.95 µM,[2]; [6],91.4%
same,activity at 3.9 µM,[2]; [7],87.5%
same,activity at 31.25 µM,[2]; [9],34.6%
same,"Relative activity, antagonist mode",[2],65.82%
same,activity at 62.5 µM,[2]; [10],4.81%
same,IC50,[2],28.2 µM
same,activity at 0.98 µM,[2],91%
same,activity at 7.8 µM,[2],79.8%
same,activity at […],[2],61.3%
same,Luciferase activity compared with DMSO control (in words),[3],significantly less luciferase activity
same,activity at 10 µM,[3]; [16],24.8%
"C/C=C1\C(=O)C[C@H]2[C@@H]3CCC4=CC(=O)CC[C@]4(C)[C@H]3CC[C@]12C [GS, guggulsterone]",activity at 0.01 µM,"[3]; HEK-293T, 0.01 μM, dose-response, replicates, read-out: Relative luciferase activity (%)",96.6%
same,activity at 0.1 µM,"[3]; HEK-293T, 0.1 μM, dose-response, replicates, read-out: Relative luciferase activity (%)",81%
same,activity at 0.5 µM,"[3]; HEK-293T, 0.5 μM, dose-response, replicates, read-out: Relative luciferase activity (%)",81%
same,activity at 1 µM,"[3]; HEK-293T, 1 μM, dose-response, replicates, read-out: Relative luciferase activity (%)",79.6%
same,activity at 5 µM,"[3]; HEK-293T, 5 μM, dose-response, replicates, read-out: Relative luciferase activity (%)",66.4%
same,activity at 10 µM,"[3]; HEK-293T, 10 μM, dose-response, replicates, read-out: Relative luciferase activity (%)",53.9%
same,activity at 25 µM,"[3]; HEK-293T, 25 μM, dose-response, replicates, read-out: Relative luciferase activity (%)",30.5%
same,activity at 50 µM,"[3]; HEK-293T, 50 μM, dose-response, replicates, read-out: Relative luciferase activity (%)",29.9%
"CC(=O)c1cc2c(cc1C)C(C)(C)C(C)CC2(C)C (centres unmarked) [AHTN, tonalid]","Relative activity, agonist mode",[1],2.19%
same,activity at 1.95 µM,[2]; [6],96.2%
same,activity at 3.9 µM,[2]; [7],93.9%
same,activity at 31.25 µM,[2]; [9],80.9%
same,"Relative activity, antagonist mode",[2],48.54%
same,activity at 62.5 µM,[2]; [10],61.4%
same,activity at 250 µM,[2]; [12],31.2%
same,IC50,[2],59.5 µM
same,activity at 0.98 µM,[2],93.5%
same,activity at 7.8 µM,[2],94.1%
same,activity at 125 µM,[2],41.4%
same,activity at […],[2],89.3%
same,Luciferase activity compared with DMSO control (in words),[3],significantly less luciferase activity
same,activity at 25 µM,[3]; [16],40.1%
"Clc1ccc(COC(Cn2ccnc2)c2ccc(Cl)cc2Cl)c(Cl)c1 (centres unmarked) [MCZ, miconazole]","Relative activity, agonist mode",[1]; [4],0.00%
same,activity at 0.98 µM,[2]; [5],101%
same,activity at 1.95 µM,[2]; [6],96.5%
same,activity at 3.9 µM,[2]; [7],92.9%
same,activity at 7.8 µM,[2]; [8],77.8%
same,activity at 31.25 µM,[2]; [9],31.7%
same,activity at 62.5 µM,[2]; [10],15.9%
same,activity at 125 µM,[2]; [11],4.54%
same,activity at 250 µM,[2]; [12],2.51%
same,activity at […],[2]; [13],61.6%
same,IC50,[2],20.5 µM
same,Luciferase activity compared with DMSO control (in words),[3]; [17],significantly less luciferase activity
same,Relative luciferase activity (%),[3]; [14],93.6% and 60.3% and 85.8%
same,Relative luciferase activity (%),[3]; [15],77.5% and 67.2% and 91.8%
"O=C1Nc2ccc(Cl)cc2[C@@](C#CC2CC2)(C(F)(F)F)O1 [EFV, efavirenz]","Relative activity, agonist mode",[1]; [4],1.60%
same,Relative antagonist activity (%),[2]; [5],83.56% and 97.08%
same,activity at 0.98 µM,[2]; [5],100%
same,Relative antagonist activity (%),[2]; [6],96.79% and 93.64%
same,activity at 1.95 µM,[2]; [6],101%
same,Relative antagonist activity (%),[2]; [7],97.17% and 94.87%
same,activity at 3.9 µM,[2]; [7],94.6%
same,Relative antagonist activity (%),[2]; [8],92.66% and 89.45%
same,activity at 7.8 µM,[2]; [8],91%
same,Relative antagonist activity (%),[2]; [9],63.55% and 62.84%
same,activity at 31.25 µM,[2]; [9],61.1%
same,"Relative activity, antagonist mode",[2],80.64%
same,Relative antagonist activity (%),[2]; [10],18.58% and 19.89%
same,activity at 62.5 µM,[2]; [10],20.8%
same,Relative antagonist activity (%),[2]; [11],-1.08% and -0.91% and -0.84%
same,Relative antagonist activity (%),[2]; [12],-2.04% and -2.11% and -2.16%
same,activity at […],[2]; [13],82%
same,IC50,[2],40.6 µM
same,Luciferase activity compared with DMSO control (in words),[3]; [17],significantly less luciferase activity
same,Relative luciferase activity (%),[3]; [14],29.3% and 36.3%
same,Relative luciferase activity (%),[3]; [15],36.4% and 33.0% and 15.9%
same,activity at 10 µM,"[3]; HEK-293T, 10 μM compound in the presence of 50 μM CDCA, DMSO 0%, 50 μM CDCA 100%, HEK 293T, replicates, read-out: Relative luciferase activity (%)",26.9%

# From publication PMC12010937, “Evaluation of FXR Activity in Pollutants Identified in Sewage Sludge and Subsequent in Vitro and in Vivo Characterization of Metabolic Effects of Triphenyl Phosphate” (Environmental Health Perspectives, 2025)
